In article PMC13198257, “An aerosolized dual-action autotaxin inhibitor-PPARγ agonist for the treatment of pulmonary fibrosis” (Cell Reports Medicine, 2026):

Test system: lung gene expression
Assay: RNA sequencing of lung tissue (BLM/EL244 vs BLM)
Format: in vivo, mouse
Method: RNA quality was assessed using an Agilent TapeStation 4150 with the High Sensitivity […] ScreenTape (Agilent), according to the manufacturer’s protocols. For library preparation, the QuantSeq 3’mRNA-Seq Library Prep Kit (Lexogen) was used according to manufacturer’s instructions. Briefly, 500 ng of RNA from each sample was used for first-strand synthesis, followed by RNA template removal, and second-strand synthesis initiated by random primers. In-line barcodes were introduced at this step, and this was followed by magnetic bead-based purification. The resulting libraries were amplified for 15 cycles and re-purified, with quantity and quality assessed on a Qubit 4 Fluorometer with the Invitrogen Qubit dsDNA HS Assay and an Agilent Tapestation 4150 with the High Sensitivity D1000 assay kit, respectively. The quantified libraries were pooled equimolarly; 50ng of total library mix was used for Adapter Conversion PCR Amplification using the Universal Library Conversion Kit (App-A), Version: V1.0 (MGI Tech Co., Ltd.), according to the manufacturer’s instructions.
The quantity and quality of the purified adapter conversion PCR (AC-PCR) product were evaluated on a Qubit 4 Fluorometer with the Invitrogen Qubit dsDNA HS Assay and on an Agilent Tapestation 4150 with the High Sensitivity D1000 assay kit, respectively. This was followed by DNA denaturation, Single-Strand Circularisation, Enzymatic Digestion, Enzymatic Digestion Product Cleanup and Quality Control steps on 1 pmol of AC-PCR product, according to the Universal Library Conversion Kit (App-A) User Manual (Version: A3).
Finally, 60 fmol of ssCirDNA were used for DNB preparation and sequencing on a DNBSEQ-G400 platform at the BSRC Alexander Fleming Genomics Facility, using a G400 App-A FCS SE100 High-throughput Sequencing Set (MGI Tech Co., Ltd.), according to the manufacturer’s instructions.
Alignment of the FASTQ files was performed against the mouse genome build mm10 using a custom Bash script.[143] Read counting on the 3′ UTRs and differential expression analysis were conducted using the metaseqR2 bioconductor package.[144] Genes corresponding to the following biotypes were excluded: polymorphic_pseudogene, processed_transcript, pseudogene, IG_V_pseudogene, misc_RNA, IG_C_gene, IG_J_gene, IG_D_gene, IG_LV_gene, TR_V_gene, TR_V_pseudogene, TEC, and processed_pseudogene. Gene counts were normalized with DESEQ[145] through metaseqR2. Genes with more than 10 counts in at least 50% of the samples were kept for further processing. For differential expression analysis, the PANDORA algorithm[146] was used to estimate a meta p-value integrating the results from the DESEQ, DESEQ2,[147] edgeR,[148] limma,[149] NBPSeq,[150] and NOISeq[151] algorithms. All additional parameters were set to default values.
Pathway enrichment analysis was performed for the Gene Ontology Biological process (BP) and Molecular Function (MF) terms through GeneCodis 4.[152] The volcano plots, scatterplots, Venn diagrams, and dot plots were generated using the ggplot2 Bioconductor package.

For `O=C1NC(=O)C(Cc2ccc(OCCC3CCN(C(=O)OCc4cc(Cl)cc(Cl)c4)CC3)cc2)S1` (stereo not drawn) [EL244, 3,5-dichlorobenzyl 4-(2-(4-((2,4-dioxothiazolidin-5-yl)methyl)phenoxy)ethyl)piperidine-1-carboxylate], the “log2 nFC BLM/EL244 vs BLM” value (DEG Ccl9) was -1.37, the “log2 nFC BLM/EL244 vs BLM” value (DEG Ccnb1) was -2.41 and the “Cd300lg log2 nFC BLM/EL244 vs BLM” value (DEG Cd300lg, nFC: normalised fold change) was 1.18. For the same compound, the “log2 nFC BLM/EL244 vs BLM” value (DEG Cdc20) was -1.58, the “log2 nFC BLM/EL244 vs BLM” value (DEG Cdca2) was -1.33 and the “log2 nFC BLM/EL244 vs BLM” value (DEG Cenpa) was -1.31. The “log2 nFC BLM/EL244 vs BLM” value (DEG Cenpk) was -1.51, the “log2 nFC BLM/EL244 vs BLM” value (DEG Cenpw) was -1.33 and the “Cep85l log2 nFC BLM/EL244 vs BLM” value (DEG Cep85l, nFC: normalised fold change) was 1.02. For the same compound, the “log2 nFC BLM/EL244 vs BLM” value (DEG Cercam) was -1.37, the “Cfap100 log2 nFC BLM/EL244 vs BLM” value (DEG Cfap100, nFC: normalised fold change) was 0.89 and the “Cfap206 log2 nFC BLM/EL244 vs BLM” value (DEG Cfap206, nFC: normalised fold change) was 0.77. The “Cftr log2 nFC BLM/EL244 vs BLM” value (DEG Cftr, nFC: normalised fold change) was 0.96, the “Chia1 log2 nFC BLM/EL244 vs BLM” value (DEG Chia1, nFC: normalised fold change) was 1.16 and the “Chrdl1 log2 nFC BLM/EL244 vs BLM” value (DEG Chrdl1, nFC: normalised fold change) was 1.39. For the same compound, the “log2 nFC BLM/EL244 vs BLM” value (DEG Chsy3) was -1.56, the “Cidec log2 nFC BLM/EL244 vs BLM” value (DEG Cidec, nFC: normalised fold change) was 1.57 and the “log2 nFC BLM/EL244 vs BLM” value (DEG Cilp) was -1.39. The “log2 nFC BLM/EL244 vs BLM” value (DEG Ckap2) was -2.44, the “Ckm log2 nFC BLM/EL244 vs BLM” value (DEG Ckm, nFC: normalised fold change) was 2.32 and the “Ckmt2 log2 nFC BLM/EL244 vs BLM” value (DEG Ckmt2, nFC: normalised fold change) was 2.73. For the same compound, the “log2 nFC BLM/EL244 vs BLM” value (DEG Cks1b) was -1.54, the “Cldn5 log2 nFC BLM/EL244 vs BLM” value (DEG Cldn5, nFC: normalised fold change) was 0.97 and the “log2 nFC BLM/EL244 vs BLM” value (DEG Clec4a2) was -1.26. The “log2 nFC BLM/EL244 vs BLM” value (DEG Clec4n) was -1.39, the “log2 nFC BLM/EL244 vs BLM” value (DEG Col1a2) was -1.41 and the “log2 nFC BLM/EL244 vs BLM” value (DEG Col3a1) was -1.54. For the same compound, the “log2 nFC BLM/EL244 vs BLM” value (DEG Col5a1) was -1.52, the “log2 nFC BLM/EL244 vs BLM” value (DEG Col5a2) was -1.48 and the “log2 nFC BLM/EL244 vs BLM” value (DEG Col5a3) was -1.53. For the same compound, the “Colq log2 nFC BLM/EL244 vs BLM” value (DEG Colq, nFC: normalised fold change) was 1.81, the “Cox6a2 log2 nFC BLM/EL244 vs BLM” value (DEG Cox6a2, nFC: normalised fold change) was 1.42 and the “Crebl2 log2 nFC BLM/EL244 vs BLM” value (DEG Crebl2, nFC: normalised fold change) was 0.79. For the same compound, the “Crispld2 log2 nFC BLM/EL244 vs BLM” value (DEG Crispld2, nFC: normalised fold change) was 0.80, the “Cry2 log2 nFC BLM/EL244 vs BLM” value (DEG Cry2, nFC: normalised fold change) was 0.70 and the “Csf3r log2 nFC BLM/EL244 vs BLM” value (DEG Csf3r, nFC: normalised fold change) was 1.69. For the same compound, the “Csrnp1 log2 nFC BLM/EL244 vs BLM” value (DEG Csrnp1, nFC: normalised fold change) was 0.83, the “Csrp3 log2 nFC BLM/EL244 vs BLM” value (DEG Csrp3, nFC: normalised fold change) was 2.07 and the “Cst8 log2 nFC BLM/EL244 vs BLM” value (DEG Cst8, nFC: normalised fold change) was 1.41. For the same compound, the “Ctla2a log2 nFC BLM/EL244 vs BLM” value (DEG Ctla2a, nFC: normalised fold change) was 0.72, the “Ctla2b log2 nFC BLM/EL244 vs BLM” value (DEG Ctla2b, nFC: normalised fold change) was 0.96 and the “log2 nFC BLM/EL244 vs BLM” value (DEG Cxcl13) was -1.42. The “Cxcr2 log2 nFC BLM/EL244 vs BLM” value (DEG Cxcr2, nFC: normalised fold change) was 1.19, the “Cyp2a5 log2 nFC BLM/EL244 vs BLM” value (DEG Cyp2a5, nFC: normalised fold change) was 1.66 and the “Cyp2d22 log2 nFC BLM/EL244 vs BLM” value (DEG Cyp2d22, nFC: normalised fold change) was 0.97. For the same compound, the “Cyp2f2 log2 nFC BLM/EL244 vs BLM” value (DEG Cyp2f2, nFC: normalised fold change) was 0.79, the “Cyp4b1 log2 nFC BLM/EL244 vs BLM” value (DEG Cyp4b1, nFC: normalised fold change) was 1.18 and the “log2 nFC BLM/EL244 vs BLM” value (DEG Cyp7b1) was -1.41. For the same compound, the “Cytl1 log2 nFC BLM/EL244 vs BLM” value (DEG Cytl1, nFC: normalised fold change) was 1.67, the “D630024D03Rik log2 nFC BLM/EL244 vs BLM” value (DEG D630024D03Rik, nFC: normalised fold change) was 1.60 and the “Dgkh log2 nFC BLM/EL244 vs BLM” value (DEG Dgkh, nFC: normalised fold change) was 0.84. The “Dnali1 log2 nFC BLM/EL244 vs BLM” value (DEG Dnali1, nFC: normalised fold change) was 0.73, the “log2 nFC BLM/EL244 vs BLM” value (DEG Dok2) was -1.37 and the “Dpep1 log2 nFC BLM/EL244 vs BLM” value (DEG Dpep1, nFC: normalised fold change) was 0.71. For the same compound, the “Dpysl5 log2 nFC BLM/EL244 vs BLM” value (DEG Dpysl5, nFC: normalised fold change) was 1.90, the “Dusp1 log2 nFC BLM/EL244 vs BLM” value (DEG Dusp1, nFC: normalised fold change) was 0.86 and the “log2 nFC BLM/EL244 vs BLM” value (DEG E2f8) was -1.57.
